{"source": "patent US20150320773A1", "about": "“TREATMENT OF INFLAMMATION” (Vascular Biogenics Ltd., priority 2011, published 2015)", "key": {"chemokine receptors": {"test_system": "chemokine receptors", "assay": "GPCR activation assay, agonist mode (calcium flux)", "type": "cell-based", "conditions": "12.5 μM VB-201; ChemiScreen stable cell lines"}, "TLR5": {"biological_target": "TLR5 (Mus musculus, UniProt Q9JLF7)", "sequence (Q9JLF7 27-859)": "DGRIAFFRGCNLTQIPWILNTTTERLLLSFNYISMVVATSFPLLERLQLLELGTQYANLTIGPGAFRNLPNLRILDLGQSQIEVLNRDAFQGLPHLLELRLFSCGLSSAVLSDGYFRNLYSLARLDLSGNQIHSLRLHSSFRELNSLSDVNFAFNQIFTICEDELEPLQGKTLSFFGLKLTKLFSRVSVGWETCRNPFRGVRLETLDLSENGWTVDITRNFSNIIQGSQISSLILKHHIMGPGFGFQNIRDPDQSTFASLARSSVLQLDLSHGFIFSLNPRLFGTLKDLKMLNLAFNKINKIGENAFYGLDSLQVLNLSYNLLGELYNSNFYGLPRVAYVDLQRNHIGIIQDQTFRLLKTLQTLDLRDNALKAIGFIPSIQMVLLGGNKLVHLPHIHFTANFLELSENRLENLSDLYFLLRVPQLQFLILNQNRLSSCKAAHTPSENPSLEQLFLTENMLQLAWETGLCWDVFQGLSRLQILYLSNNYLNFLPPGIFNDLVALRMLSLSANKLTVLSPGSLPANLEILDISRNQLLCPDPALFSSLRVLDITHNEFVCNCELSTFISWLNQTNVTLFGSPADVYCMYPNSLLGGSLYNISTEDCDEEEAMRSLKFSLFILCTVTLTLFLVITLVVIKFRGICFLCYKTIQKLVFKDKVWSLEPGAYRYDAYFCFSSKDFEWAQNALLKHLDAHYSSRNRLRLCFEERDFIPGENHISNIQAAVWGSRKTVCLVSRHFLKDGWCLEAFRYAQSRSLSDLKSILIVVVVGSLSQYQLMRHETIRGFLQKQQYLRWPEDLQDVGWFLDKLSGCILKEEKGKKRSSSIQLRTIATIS", "conditions": "mouse BMDCs; flagellin; 1.7, 8.5 or 17 μM"}, "COX-2": {"biological_target": "COX-2 (Homo sapiens, UniProt P35354)", "sequence (P35354 18-604)": "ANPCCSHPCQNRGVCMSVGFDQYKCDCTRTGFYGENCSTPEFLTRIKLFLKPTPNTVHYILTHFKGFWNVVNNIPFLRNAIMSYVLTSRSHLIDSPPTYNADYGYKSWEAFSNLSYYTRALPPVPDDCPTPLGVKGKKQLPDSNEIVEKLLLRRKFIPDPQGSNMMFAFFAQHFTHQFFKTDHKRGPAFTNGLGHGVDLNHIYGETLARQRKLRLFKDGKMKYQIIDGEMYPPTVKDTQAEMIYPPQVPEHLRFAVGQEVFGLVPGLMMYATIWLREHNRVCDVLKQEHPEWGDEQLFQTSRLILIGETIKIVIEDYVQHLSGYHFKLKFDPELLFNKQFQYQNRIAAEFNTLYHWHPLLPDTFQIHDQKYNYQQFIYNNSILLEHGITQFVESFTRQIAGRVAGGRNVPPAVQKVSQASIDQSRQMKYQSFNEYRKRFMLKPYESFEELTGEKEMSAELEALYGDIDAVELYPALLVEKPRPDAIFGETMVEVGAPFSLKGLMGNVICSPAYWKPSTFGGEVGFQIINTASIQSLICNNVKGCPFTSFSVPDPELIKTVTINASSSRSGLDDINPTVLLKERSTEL", "conditions": "concentrations of up to 10 μM; data not shown"}, "CCR5": {"biological_target": "CCR5 (Homo sapiens, UniProt P51681)", "sequence (P51681 whole entry)": "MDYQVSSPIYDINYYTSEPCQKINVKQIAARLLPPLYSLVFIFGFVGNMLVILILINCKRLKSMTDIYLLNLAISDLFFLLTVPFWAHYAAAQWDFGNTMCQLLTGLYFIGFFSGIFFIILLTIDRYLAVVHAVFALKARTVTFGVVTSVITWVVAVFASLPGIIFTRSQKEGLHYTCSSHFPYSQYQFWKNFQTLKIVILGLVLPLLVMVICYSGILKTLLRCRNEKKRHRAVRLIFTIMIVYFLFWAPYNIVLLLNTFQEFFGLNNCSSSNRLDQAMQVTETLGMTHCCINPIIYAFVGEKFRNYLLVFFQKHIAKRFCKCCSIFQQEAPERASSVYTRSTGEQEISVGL", "conditions": "escalating doses", "method": "(§1) Analyses were performed by Millipore GPCR Profiler Service, by measuring intracellular calcium signal in real time using FLIPR^TETRA device. […] Antagonist percentage inhibition was referenced to EC80 control wells for each tested GPCR."}, "CCR2B": {"biological_target": "CCR2B (Homo sapiens, UniProt P41597)", "sequence (P41597 1-360 isoform P41597-2)": "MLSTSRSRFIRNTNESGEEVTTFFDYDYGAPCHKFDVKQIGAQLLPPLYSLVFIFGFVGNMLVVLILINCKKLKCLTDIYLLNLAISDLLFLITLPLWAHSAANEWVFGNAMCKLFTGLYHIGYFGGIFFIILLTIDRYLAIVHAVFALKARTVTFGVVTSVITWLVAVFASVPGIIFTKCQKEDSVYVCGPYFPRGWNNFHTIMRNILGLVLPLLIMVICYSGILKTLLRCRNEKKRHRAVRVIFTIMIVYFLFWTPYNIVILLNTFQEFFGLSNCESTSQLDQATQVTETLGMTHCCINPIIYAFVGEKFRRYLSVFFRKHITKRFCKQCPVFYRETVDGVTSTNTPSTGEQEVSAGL", "conditions": "escalating doses", "method": "as §1"}, "ApoE KO mice": {"test_system": "ApoE KO mice", "assay": "Atherosclerosis study in ApoE KO mice"}, "[1]": {"test_system": "kinases, phosphatases, ion channels/ransporters", "assay": "Selectivity: effect on activity of additional proteins"}, "patients": {"test_system": "patients", "assay": "Vascular inflammation in patients (statin therapy)", "type": "in vivo, human", "conditions": "in some instances", "method": "In some examples according to any one of the embodiments of Methods 1a, 1b, 2, and 3 described herein, the vascular inflammation is measured using positron emission computed tomography (PET/CT) imaging quantifying 18-fluorodeoxyglucose (18-FDG) uptake as a target to background ratio (TBR), e.g., as described herein, or in Example 8 of WO2011/083465."}, "TLR4": {"biological_target": "T1, TLR4 (Mus musculus, UniProt Q9QUK6)", "T1 sequence (Q9QUK6 26-835)": "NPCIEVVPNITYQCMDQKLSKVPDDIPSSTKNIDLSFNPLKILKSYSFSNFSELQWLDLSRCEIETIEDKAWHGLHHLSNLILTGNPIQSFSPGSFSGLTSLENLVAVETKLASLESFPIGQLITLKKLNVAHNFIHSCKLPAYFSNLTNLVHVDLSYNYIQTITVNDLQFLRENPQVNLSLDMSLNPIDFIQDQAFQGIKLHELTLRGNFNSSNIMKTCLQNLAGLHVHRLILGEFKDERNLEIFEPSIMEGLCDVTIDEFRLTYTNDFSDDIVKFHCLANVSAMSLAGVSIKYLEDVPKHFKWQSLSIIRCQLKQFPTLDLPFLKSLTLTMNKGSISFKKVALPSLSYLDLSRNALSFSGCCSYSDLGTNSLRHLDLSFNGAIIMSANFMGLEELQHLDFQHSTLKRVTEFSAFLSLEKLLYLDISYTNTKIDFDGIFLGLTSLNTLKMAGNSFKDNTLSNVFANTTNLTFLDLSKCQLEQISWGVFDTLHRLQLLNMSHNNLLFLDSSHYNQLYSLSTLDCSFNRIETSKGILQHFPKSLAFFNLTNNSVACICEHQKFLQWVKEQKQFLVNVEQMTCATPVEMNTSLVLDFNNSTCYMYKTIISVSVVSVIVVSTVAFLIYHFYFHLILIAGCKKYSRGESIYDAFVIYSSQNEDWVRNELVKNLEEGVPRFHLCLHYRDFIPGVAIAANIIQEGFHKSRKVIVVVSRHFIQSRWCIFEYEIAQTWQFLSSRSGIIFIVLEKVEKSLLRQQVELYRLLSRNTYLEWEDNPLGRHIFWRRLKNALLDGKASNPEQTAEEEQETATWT", "T1 sequence (Q9JHF9 19-160 partner)": "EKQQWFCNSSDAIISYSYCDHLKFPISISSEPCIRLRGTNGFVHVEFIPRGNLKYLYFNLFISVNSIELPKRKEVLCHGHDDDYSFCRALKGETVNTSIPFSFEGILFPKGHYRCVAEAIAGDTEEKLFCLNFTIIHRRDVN"}, "IL-1 receptor (IL-1R)": {"biological_target": "IL-1 receptor (IL-1R) (Mus musculus, UniProt P13504)", "sequence (P13504 20-576)": "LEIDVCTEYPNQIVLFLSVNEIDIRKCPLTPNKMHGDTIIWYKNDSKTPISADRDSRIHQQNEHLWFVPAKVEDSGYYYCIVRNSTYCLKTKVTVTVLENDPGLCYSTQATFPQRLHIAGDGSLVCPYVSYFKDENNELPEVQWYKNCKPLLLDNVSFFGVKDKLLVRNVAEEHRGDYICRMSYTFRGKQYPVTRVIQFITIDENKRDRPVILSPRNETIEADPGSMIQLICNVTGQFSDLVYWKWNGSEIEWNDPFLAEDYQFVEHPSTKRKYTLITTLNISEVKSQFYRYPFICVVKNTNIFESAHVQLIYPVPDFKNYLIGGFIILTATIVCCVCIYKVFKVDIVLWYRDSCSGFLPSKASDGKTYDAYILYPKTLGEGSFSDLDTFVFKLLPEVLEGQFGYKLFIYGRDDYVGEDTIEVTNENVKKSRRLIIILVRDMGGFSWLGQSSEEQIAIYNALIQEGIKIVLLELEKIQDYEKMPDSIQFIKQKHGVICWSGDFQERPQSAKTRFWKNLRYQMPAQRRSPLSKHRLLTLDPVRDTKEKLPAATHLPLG", "conditions": "mouse BMDCs; 1.7, 8.5 or 17 μM"}, "[2]": {"test_system": "phosphorylation of Akt, MEK1/2, ERK1/2 and p38 in human monocytes", "assay": "Chemokine-induced signaling in human monocytes, Western blot"}, "monocytes": {"test_system": "monocytes", "assay": "Monocyte adhesion assay (TNFα-stimulated HUVEC)", "type": "cell-based, human", "conditions": "1-10 μg/ml VB-201; compared to the solvent control", "method": "Matrix plates were pre-seeded with HUVEC and subjected to 4 hour stimulation with 10 ng/ml TNFα to induce expression of adhesion molecules. Freshly isolated monocytes were stained for 30 minutes with 5 µM calcein AM (Invitrogen) in serum free RPMI and then washed twice with PBS to remove excess dye. […] 10^5 stained monocytes were loaded per well into 96-well dishes and allowed to adhere for 15 minutes. Following 4 washes with PBS, adherent monocyte intensity was read using FLUOROSKAN Ascent FL device using excitation at 485 nm and emission at 538 nm.\nNext, we examined whether VB-201 or oxidized PAPC treatment of monocytes affects their interaction with endothelial cells. HUVEC were plated in 96-wells and treated with TNFαc to induce expression of adhesion molecules. […] Following extensive washes, adherent monocytes were quantified by fluorescence."}, "human monocytes": {"test_system": "human monocytes", "assay": "Cell viability assay (MTS) of human monocytes", "type": "cell-based", "conditions": "16 hours, doses of 1-10 j±g/ml"}, "[3]": {"test_system": "NIH-3T3 mouse fibroblasts", "assay": "Wound-healing 'scratch' assay", "type": "cell-based", "conditions": "data not shown"}, "TNFα receptor": {"test_system": "TNFα receptor", "conditions": "concentrations of up to 17 μM; data not shown"}, "THP-1 cells": {"test_system": "THP-1 cells", "assay": "Trans-well chemotaxis assay of THP-1 cells", "type": "cell-based, human"}, "[4]": {"conditions": "5 μg/ml VB-201, MCP-1 and MCP-3-stimulated cells"}}, "data": [{"compound": "CCCCCCCCCCCCCCCCOC[C@H](COP(=O)([O-])OCC[N+](C)(C)C)OCCCCC(=O)O", "note": "[VB-201, (R)-1-hexadecyl-2-(4′-carboxyl)butyl-sn-glycero-3-phosphocholine]", "values": [{"measurement": "activation relative to positive controls (agonist, Ca++ flux)", "setting": "chemokine receptors", "value": "less than 5%"}, {"measurement": "p38 phosphorylation following activation of TLR5", "setting": "TLR5", "value": "no apparent effect"}, {"measurement": "inhibition of COX-2", "setting": "COX-2", "value": "No inhibition"}, {"measurement": "antagonistic effect against CCR5", "setting": "CCR5", "value": "did not induce an antagonistic effect"}, {"measurement": "antagonistic effect against CCR2B", "setting": "CCR2B", "value": "did not induce an antagonistic effect"}, {"measurement": "plaque formation relative to the PBS control", "setting": "ApoE KO mice; 1.5 mg/kg, daily oral gavage, 8 weeks", "value": "significantly reduced plaque formation"}, {"measurement": "fatty streaks", "setting": "ApoE KO mice; daily oral gavage, 8 weeks, 0.15 or 1.5 mg/kg", "value": "markedly reduced"}, {"measurement": "macrophage accumulation in the aortic sinus lesion (anti-CD68)", "setting": "ApoE KO mice; relative to controls", "value": "reduced"}, {"measurement": "inhibition of kinases, phosphatases, ion channels/ransporters", "setting": "[1]", "value": "No inhibition"}, {"measurement": "effect on vascular inflammation in patients undergoing statin therapy versus patients not being treated with statins", "setting": "patients", "value": "slightly better"}, {"measurement": "LPS-induced signaling", "setting": "TLR4; RAW 264.7 murine macrophages", "value": "inhibited LPS-induced signaling in a dose-dependent manner"}, {"measurement": "p38 phosphorylation following activation of TLR4", "setting": "TLR4; mouse BMDCs, LPS, 1.7, 8.5 or 17 μM", "value": "inhibited p^38 phosphorylation in a dose-dependent manner"}, {"measurement": "activation of p38, ERK1/2 and the NFκB pathway following activation of TLR4", "setting": "TLR4; mouse peritoneal macrophages, LPS, 1.7, 8.5 or 17 μM", "value": "inhibited activation of p38, ERK1/2 and the NFκB pathway in a dose-dependent manner"}, {"measurement": "p38 phosphorylation following activation of IL-1 receptor", "setting": "IL-1 receptor (IL-1R)", "value": "no apparent effect"}, {"measurement": "ERK1/2 phosphorylation in stimulated monocytes", "setting": "[2]; 50 ng/ml RANTES", "value": "inhibited ERK1/2 phosphorylation"}, {"measurement": "phosphorylation levels of ERK1/2", "setting": "[2]; 5 μg/ml VB-201, Fractalkine-stimulated cells", "value": "considerable reduction"}, {"measurement": "phosphorylation levels of Akt", "setting": "[2]; [4]", "value": "considerable reduction"}, {"measurement": "phosphorylation levels of ERK1/2", "setting": "[2]; [4]", "value": "considerable reduction"}, {"measurement": "phosphorylation levels of MEK1/2", "setting": "[2]; [4]", "value": "considerable reduction"}, {"measurement": "phosphorylation levels of p38", "setting": "[2]; [4]", "value": "but not in phosphorylation levels of p38"}, {"measurement": "ERK1/2 phosphorylation in monocytes pre-stimulated with MCP-1 overnight", "setting": "[2]; 8.5 μM VB-201 for 2, 5 or 15 min, 10 ng/ml MCP-1, 16 hrs", "value": "reduction of ERK1/2 phosphorylation in starting at 5 min"}, {"measurement": "monocyte adhesion to HUVEC", "setting": "monocytes", "value": "had no effect on their adhesion to HUVEC"}, {"measurement": "monocyte viability", "setting": "human monocytes", "value": "no effect on monocyte viability"}, {"measurement": "cell migration in wound-healing scratch assay", "setting": "[3]", "value": "no effect on cell migration"}, {"measurement": "inhibition of TNFα receptor", "setting": "TNFα receptor", "value": "No inhibition"}, {"measurement": "effect of Wortmannin, Rapamycin and GW5074 on chemotaxis of THP-1 cells with added VB-201", "setting": "THP-1 cells; VB-201 8.5 μM", "value": "further enhanced"}, {"measurement": "in vitro migration of THP-1 cells", "setting": "THP-1 cells; pretreatment 30 minutes, 2 or 5 μg/ml", "value": "significantly inhibited in vitro migration of THP-1 cells in a dose-dependent manner"}]}]}
